Measured values: patent US6462173B1, “Inhibitors of phosphoserine and phosphothreonine-proline-specific isomerases” (Max-Planck-Gesellschaft zur Forderung der, priority 1997, dated 2002)

Key:
[1] = system: Xenopus embryos; assay: Microinjection of Xenopus embryos, cell cycle block; type: in vivo
Experimental: Unfertilized eggs were incubated with sperm, dejellied, and 4 μM of the indicated protein (about 10 fold above the estimated endogenous levels) was injected in one cell of two cell stage embryos (30 embryos each protein). The injected embryos were allowed to develop at 18° C. to stage 8 and pictures were taken of typical embryos. The titration of Pin1 and the mutants was essentially as described above except that the indicated protein was injected into one cell of 4 cell stage (18 embryos each Pin1 concentration) to the indicated final concentration and allowed to develop for 3h. […] To be consistent, cell cycle blocked embryo's were scored as those that contained at least one cell on the injected side that was greater than 5 times larger than uninjected cells (FIG. 2).
To examine whether increasing the concentration of Pin1 has similar biological effects in Xenopus, Pin1 or Pin1 mutants were injected into one cell of 2 cell stage embryos and allowed the embryos to develop for 3 h (about 5 divisions). […] In contrast, the same extracts containing 40 μM of either BSA or the mutant Pin1 proteins entered mitosis by 70 to 80 min as detected by nuclear envelope breakdown, spindle formation and high histone H1 kinase activity. […]

[2] = target: T1, mitotic GST-Cdc25 (Xenopus laevis, UniProt P30309); assay: Cdc25 activity assay (activation of cyclin B/Cdc2, H1 kinase); type: biochemical; conditions: 0.67 μM protein, 1 μM mitotic Cdc25
T1 construct: made in house
T1 sequence (P30309 1-550): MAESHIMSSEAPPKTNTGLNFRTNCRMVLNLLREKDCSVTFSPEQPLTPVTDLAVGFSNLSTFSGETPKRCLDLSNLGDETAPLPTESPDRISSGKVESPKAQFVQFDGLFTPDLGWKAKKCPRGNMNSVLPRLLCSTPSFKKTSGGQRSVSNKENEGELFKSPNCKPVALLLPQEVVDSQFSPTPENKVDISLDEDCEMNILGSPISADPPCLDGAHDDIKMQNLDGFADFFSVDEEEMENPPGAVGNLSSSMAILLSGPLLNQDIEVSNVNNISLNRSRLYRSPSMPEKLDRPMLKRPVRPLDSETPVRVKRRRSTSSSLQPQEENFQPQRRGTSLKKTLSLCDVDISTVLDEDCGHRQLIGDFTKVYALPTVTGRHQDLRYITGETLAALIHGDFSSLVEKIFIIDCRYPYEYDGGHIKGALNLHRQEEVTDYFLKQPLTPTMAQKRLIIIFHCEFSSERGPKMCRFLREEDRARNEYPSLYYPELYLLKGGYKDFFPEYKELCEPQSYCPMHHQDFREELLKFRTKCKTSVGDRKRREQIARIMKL
Experimental: (§1) Cdc2 was assayed using histone H1 as a substrate, as previously described in Murray, 1991; Lu and Hunter, (1995).
A subthreshold concentration of GST cyclin B (10 μg) was added to 1 ml of Xenopus interphase extract for thirty min at room temperature (Solomon, M. J., M. Glotzer, T. H. Lee, M. Philippe and M. W. Kirschner, Cell 63:1013-1024 (1990). This was diluted 8 fold in XB+3 mM DTT, rotated for 1 h with 3 ml of GST agarose beads, washed 3 times in XBIP (XB+500 mM NaCl and 1% NP40+2 mM DTT), washed 2 times (once overnight) in EB (80 mM β glycerol phosphate, 15 mM EGTA, 15 mM MgCl2)+2 mM DTT, 500 mM NaCl and 1% NP40, and finally twice with EB+10 mM DTT. These Cdc25 assay beads were stored at 4° C. for up to 1 month. Mitotic GST-Cdc25 was purified by incubating 22 μg of GST-Cdc25, in a Xenopus mitotic extract for 30 min at 23° C., this was diluted 8 fold in XB and rotated with 50 μl of glutathione-Agarose beads (Sigma) for 1 hr at 4° C. The beads were washed 5 times in XB-IP, twice in XB+2 mM DTT and eluted in 25 μl XB+2 mM reduced GSH. The final concentration of Mitotic GST-Cdc25 was 0.36 mg/ml. […] Phosphoimager analysis of the H1 kinase assays were quantified by the Molecular Dynamics ImageQuant 3.3 software. […] The most reproducible way to quantify the Cdc25 activity in this assay was by determining the endpoint dilution of Cdc25 which could activate Cdc2. […]

[3] = target: T2, cyclin B/Cdc2 (Xenopus laevis, UniProt P35567); assay: Activity of dephosphorylated-active cyclin B/Cdc2; type: biochemical; conditions: same conditions as Cdc25 assay
T2 construct: from tissue; host or cells: Xenopus interphase egg extract (Cdc2); recombinant GST cyclin B added
Experimental: as §1
Therefore, we tested whether Pin1 could affect the physiological activity of Cdc25, which is to dephosphorylate and activate the cyclin B/Cdc2 complex. To generate the mitotically phosphorylated form of Cdc25, GST-Cdc25 was incubated in Xenopus mitotic extracts, affinity purified on glutathione agarose beads and eluted. […] This offers one explanation for the ability of Pin1 to inhibit mitotic entry.

T2 sequence (P35567 whole entry): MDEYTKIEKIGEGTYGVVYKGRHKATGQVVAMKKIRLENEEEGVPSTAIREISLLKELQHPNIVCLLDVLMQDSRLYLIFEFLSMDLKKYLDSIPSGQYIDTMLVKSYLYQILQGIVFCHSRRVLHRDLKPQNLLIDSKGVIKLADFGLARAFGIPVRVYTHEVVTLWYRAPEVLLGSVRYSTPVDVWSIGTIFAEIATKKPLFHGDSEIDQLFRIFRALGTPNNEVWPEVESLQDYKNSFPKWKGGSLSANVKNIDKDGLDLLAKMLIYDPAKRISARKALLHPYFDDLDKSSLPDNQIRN
T2 sequence (P07818 whole entry partner): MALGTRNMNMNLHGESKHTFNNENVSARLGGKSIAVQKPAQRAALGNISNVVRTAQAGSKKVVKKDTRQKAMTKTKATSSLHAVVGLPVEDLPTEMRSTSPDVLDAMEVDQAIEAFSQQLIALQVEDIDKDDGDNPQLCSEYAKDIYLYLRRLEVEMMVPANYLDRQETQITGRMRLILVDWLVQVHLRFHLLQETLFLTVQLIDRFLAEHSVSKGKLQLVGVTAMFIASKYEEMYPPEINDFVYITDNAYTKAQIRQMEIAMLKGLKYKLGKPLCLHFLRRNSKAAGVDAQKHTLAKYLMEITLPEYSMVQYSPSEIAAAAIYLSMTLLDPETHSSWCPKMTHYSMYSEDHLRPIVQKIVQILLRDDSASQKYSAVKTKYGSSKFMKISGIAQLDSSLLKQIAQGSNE

Pin1: essential mitotic peptidyl-prolyl cis-trans isomerase, recombinant protein
cleavage of injected cells ([1]; 4 μM final, one cell of 2 cell stage embryos, 3 h): failed to cleave or cleaved slowly | inhibition of the cell cycle ([1]; 10 μM, approximately 20 fold above estimated endogenous levels): completely inhibited the cell cycle | effect on Cdc25 activity [2]: mitotic Cdc25 failed to activate the Cdc2 complex | effect on cdc2 activity [3]: Neither Pin1 nor the Pin1 mutant had any effect on cdc2 activity
